Data as given in patent publication US10988600B2, “Cyclodextrin-grafted cross-linked hyaluronic acid complexed with active drug substances and uses thereof” (GALDERMA S.A., priority 2016, dated 2021).

Experiment: Solubility study of adapalene with randomly methylated β-cyclodextrins
Type: physicochemical
Procedure: A solubility study was performed by adding excess amounts of adapalene (5 mg) to six glass vials containing 10 mL aqueous solutions of increasing concentrations of randomly methylated β-cyclodextrins (0-7×10^−3 M) dissolved in 154 mM NaCl and 10 mM Na-phosphate (pH 7). The samples were mixed at room temperature for six days, and then they were centrifuged at 4000 rpm for 3 minutes. The supernatants were filtered through a 0.2 μm filter in order to remove undissolved adapalene. The UV absorbance of the filtrates was then measured at 320 nm in order to determine the concentration of dissolved adapalene. The concentration of adapalene in each sample was calculated from a calibration curve.
For sample 1, from the solubility diagram study in Example 16 containing 0.7 mM randomly methylated β-cyclodextrin and an excess of adapalene, 550 μl of the filtered sample, was added to a 2 ml Eppendorf tube. The sample was then lyophilized and the solvent exchanged to D2O.
Sample 2 containing 1.5 mM randomly methylated β-cyclodextrin and 0.15 mM of adapalene dissolved in D2O and 1% DMSO-d6 was prepared by adding 550 μl of the sample to a 2 ml Eppendorf tube. The sample was then lyophilized and the solvent exchanged again to D2O.

Complexed adapalene (sample 1: 0.7 mM randomly methylated β-cyclodextrin, excess adapalene, filtered, according to solubility diagram data): about 0.075 mM
Complexed adapalene (sample 2: 1.5 mM randomly methylated β-cyclodextrin and 0.15 mM adapalene in D2O and 1% DMSO-d6): about 0.15 mM
Structure (SMILES): COc1ccc(-c2ccc3cc(C(=O)O)ccc3c2)cc1C12CC3CC(CC(C3)C1)C2 [adapalene, 6-[3-(1-adamantyl)-4-methoxy-phenyl] naphthalene-2-carboxylic acid]
Solubility of adapalene (randomly methylated β-cyclodextrins 0-7×10^−3 M, 154 mM NaCl, 10 mM Na-phosphate pH 7, room temperature, six days (FIG. 3)): increases with increasing CD concentration
